Test results taken from ChEMBL document CHEMBL4602679, “Polyesterified Sesquiterpenoids from the Seeds of Celastrus paniculatus as Lifespan-Extending Agents for the Nematode Caenorhabditis elegans” (2020).

Columns and labels:
[1] = test system: Caenorhabditis elegans; experiment: Induction of lifespan expansion in late L4 larval stage of Caenorhabditis elegans Bristol N2 assessed as survival time at 50 uM (reference value: 15.19 =/- 0.53 day); format: functional
[2] = test system: Caenorhabditis elegans; experiment: Induction of lifespan expansion in late L4 larval stage of Caenorhabditis elegans Bristol N2 assessed as increase in survival time at 50 uM relative to control; format: functional

Compound	Survival [1]	survival at 50 µM [2]
CC(=O)OC[C@@]12[C@@H](OC(C)=O)CC[C@@H](C)[C@@]13C[C@@H]([C@H](OC(C)=O)[C@@H]2OC(=O)c1ccoc1)C(C)(C)O3	16.38 days	
CC(=O)OC[C@@]12[C@@H](OC(C)=O)CC[C@@H](C)[C@]13OC(C)(C)[C@H]([C@@H](OC(C)=O)[C@@H]2OC(=O)c1ccoc1)[C@H]3OC(C)=O	16.83 days	11%
CC(=O)OC[C@@]12[C@@H](OC(C)=O)CC[C@](C)(O)[C@]13OC(C)(C)[C@H]([C@H](OC(=O)c1ccoc1)[C@@H]2OC(=O)c1ccoc1)[C@H]3OC(C)=O	17.39 days	14%
CC(=O)OC[C@@]12[C@@H](OC(C)=O)CC[C@](C)(O)[C@]13OC(C)(C)[C@H]([C@H](OC(C)=O)[C@H]2OC(=O)c1ccoc1)[C@H]3OC(C)=O	17.56 days	16%
CC(=O)OC[C@@]12[C@@H](OC(C)=O)CC[C@](C)(O)[C@]13OC(C)(C)[C@H]([C@@H](OC(C)=O)[C@@H]2OC(=O)c1ccoc1)[C@H]3OC(C)=O	15.29 days	
CC(=O)OC[C@@]12[C@@H](OC(C)=O)CC[C@@H](C)[C@]13OC(C)(C)[C@H]([C@H](OC(C)=O)[C@H]2OC(=O)c1ccccc1)[C@H]3OC(C)=O	17.77 days	17%
CC(=O)OC[C@@]12[C@@H](OC(C)=O)CC[C@@H](C)[C@@]13C[C@@H]([C@H](OC(C)=O)[C@H]2OC(=O)c1ccoc1)C(C)(C)O3	17 days	12%
CC(=O)O[C@H]1CC[C@](C)(O)[C@]23OC(C)(C)[C@H]([C@H](OC(=O)c4ccoc4)[C@H](OC(=O)c4ccoc4)[C@]12CO)[C@H]3OC(C)=O	18 days	18%
CC(=O)OC[C@]12[C@@H](OC(=O)c3ccoc3)[C@@H](OC(C)=O)[C@@H]3C[C@]1(OC3(C)C)[C@H](C)C[C@@H](OC(C)=O)[C@@H]2OC(C)=O	15.46 days	
CC(=O)OC[C@@]12[C@@H](OC(C)=O)CC[C@](C)(O)[C@]13OC(C)(C)[C@H]([C@H](OC(C)=O)[C@@H]2OC(=O)c1ccoc1)[C@H]3OC(C)=O	17.67 days	16%
